# Measured values: US10537610B1, “Peptide for inhibition of cancer” (priority 2018, dated 2020)
# Non-standard residues stand in square brackets, D forms with d. Residues, ends and D or L forms follow the SMILES beside them.
# What was measured:
# [1] = test system: breast cancer cells (MCF-7, MDA-MB-231) on HMEC-1 cells; experiment: Adhesion of breast cancer cells to endothelial monolayer under static conditions; assay type: cell-based, human; conditions: P4D 500 μM
# Method: The peptides were synthesized and purified by LifeTein, LLC (Somerset, N.J., USA) with the purity of not less than 95% using PeptideSyn™ technology that incorporates solid phase fluorenylmethyloxycarbonyl (Fmoc) chemistry. The cells were treated with the peptide P4D for 0, 1, 5, or 24 hours at a concentration of 500 μM. The cells treated with the Scrambled peptide P4D (Scr; 500 μM; 0, 1, 5, or 24 hours incubation time) were used as a negative control. In order to provide the positive control of the junctions tightening for impedance-based measurements of endothelial permeability, the cells were incubated with the potent activator of TJ assembly, forskolin (FSK; BioShop, Burlington, ON, Canada), for 24 hours at a concentration of 10 μM.
# Adhesion of human breast cancer (MCF-7, MDA-MB-231) or non-tumorigenic (MCF-10A) human breast cells to HMEC-1 cells was performed in 24-well plates. HMEC-1 cells were seeded to the bottom of the fibronectin-coated wells 2 days before the assay to form the monolayer and subjected to a suitable treatment. Breast cancer or non-tumorigenic cells were starved overnight and on the day of the assay were labeled with CellTracker Green CMFDA Dye for 30 minutes. […] The adherent cells were lysed by 2% SDS and the fluorescence was measured using the Wallac 1420 VICTOR2 Multilabel Counter (PerkinElmer) at 492 nm of excitation and 517 nm of emission wavelengths.
# soluble JAM-A = experiment: ELISA of JAM-A antigen in plasma, murine 4T1 breast cancer model; assay type: in vivo, mouse; conditions: 4T1 tumor-bearing BALB/c mice and control littermates; Tβ4 15 μg/kg or TGF-β1 5 μg/kg i.p., 21 days
# Method: All in vivo experiments were carried on female BALB/c mice aged 8 to 12 weeks purchased from Animal House of Institute of Biology, University of Bialystok (Bialystok, Poland). The mice were housed under standard conditions at the Animal House of the Medical University of Lodz (Lodz, Poland). All animal procedures and protocols were conducted in accordance with the Guide for the Care and Use of Laboratory Animals of the National Animal Care Committee and were approved by Local Ethical Committee for Animal Research in Lodz (license number 9/LB51/2017 from Jun. 2, 2017). All efforts were made to minimize animal suffering.
# Murine 4T1 cells were purchased from the American Type Culture Collection (ATCC, Manassas, Va., USA). The cells were maintained in RPMI-1640 (ATCC) with 10/o fetal bovine serum (FBS) and cultured in tissue culture flasks to 80% confluence. […]
# The unbound biotinylated antibody was washed away and HRP-conjugated streptavidin was added to the wells. […] Regarding the both protocols, the enzyme-substrate (HRP-TMB) reaction was terminated by the addition of a sulfuric acid solution and the color change was measured spectrophotometrically at a wavelenght of 450 nm using the Wallac 1420 VICTOR2 Multilabel Counter (PerkinElmer). The concentration of target antigen in the samples was determined by comparing the optical density of the samples to the standard curve.
# JAM-A mRNA = experiment: RT-PCR of JAM-A mRNA in HMEC-1 cells; assay type: cell-based, human; conditions: Tβ4 200 nM or TGF-β1 10 ng/mL
Molecule,adhesion of MECs to inflamed endothelial monolayer ([1]; HMEC-1 preincubated with TNF-α 10 ng/ml and IFN-γ 20 ng/ml for 24 hours),"extent of adhesion inhibition, MDA-MB-231 cells compared with other MECs ([1]; cytokine-inflamed HMEC-1)",JAM-A level in plasma (soluble JAM-A),JAM-A expression on mRNA level (JAM-A mRNA)
"CC(C)[C@H](NC(=O)[C@H](CO)NC(=O)[C@H](N)CCCCN)C(=O)N[C@H](C(=O)N[C@H](CCCNC(=N)N)C(=O)N[C@@H](CCC(=O)O)C(=O)N[C@@H](CC(=O)O)C(=O)N[C@H](C(=O)NCC(=O)N[C@H](C(=O)N[C@@H](Cc1ccc(O)cc1)C(=O)N[C@H](C(=O)N[C@@H](CS)C(N)=O)[C@@H](C)O)[C@@H](C)O)[C@@H](C)O)[C@@H](C)O [Peptide P4D, NH2-(dK)-SVT-(dR)-EDTGTYTC-CONH2] (H-[dK]SVT[dR]EDTGTYTC-NH2)",restrained the adhesion of MECs to the inflamed endothelial monolayer,most pronounced,,
"Thymosin β4 (SDKPDMAEIEKFDKSKLKKTETQEKNPLPSKETIEQEKQAGES; not fully specified; Thymosin beta-4; UniProt P62328 2-44, looked up) [Tβ4]",,,decrease JAM-A level in plasma,no observed changes of JAM-A expression on mRNA level
